# In PubChem BioAssay AID256 (DTP/NCI, 2004):
# Values joined by “and” are separate entries in the source; they are usually repeats but may differ in a detail not shown here. Equal values may be shown once. Toxic doses and inconclusive results are not listed.
# Test system: CD2F1 mice, L1210 leukemia ip, survival T/C
# Test: NCI In Vivo Anticancer Drug Screen. Data for tumor model L1210 Leukemia (intraperitoneal) in CD2F1 (CDF1) mice
# Conditions: higher = longer survival
# How it was run: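 Read-out first: treated-group measurement over vehicle-control measurement, expressed as a ratio. Animals bore a transplanted tumor line and were dosed with compound or vehicle.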
# [1] = endpoint: mean survival time, dose: 100.0 mg/kg/injection, schedule: Q04DX003 (ip), vehicle: saline with Tween-80
# [2] = endpoint: mean survival time, dose: 200.0 mg/kg/injection, schedule: Q04DX003 (ip), vehicle: saline with Tween-80
# [3] = endpoint: mean survival time, dose: 400.0 mg/kg/injection, schedule: Q04DX003 (ip), vehicle: saline with Tween-80
smiles,measurement,setting,value
O=c1ncccn1[C@@H]1O[C@H](CO)[C@H](O)C1O (stereo partly drawn),T/C,"endpoint: median survival time, dose: 25.0 mg/kg/injection, schedule: Q01DX009 (ip), vehicle: saline",114 % of control and 109 % of control
same,T/C,"endpoint: median survival time, dose: 75.0 mg/kg/injection, schedule: Q04DX003 (ip), vehicle: saline",102 % of control
same,T/C,"endpoint: median survival time, dose: 100.0 mg/kg/injection, schedule: Q01DX009 (oral), vehicle: saline",102 % of control
same,T/C,"endpoint: median survival time, dose: 125.0 mg/kg/injection, schedule: Q01DX001 (oral), vehicle: saline",101 % of control
same,T/C,"endpoint: median survival time, dose: 150.0 mg/kg/injection, schedule: Q04DX003 (ip), vehicle: saline",106 % of control
same,T/C,"endpoint: median survival time, dose: 200.0 mg/kg/injection, schedule: Q01DX009 (oral), vehicle: saline",110 % of control
same,T/C,"endpoint: median survival time, dose: 250.0 mg/kg/injection, schedule: Q01DX001 (oral), vehicle: saline",102 % of control
same,T/C,"endpoint: median survival time, dose: 300.0 mg/kg/injection, schedule: Q04DX003 (ip), vehicle: saline",111 % of control
same,T/C,"endpoint: median survival time, dose: 500.0 mg/kg/injection, schedule: Q01DX001 (oral), vehicle: saline",105 % of control
same,T/C,"endpoint: median survival time, dose: 600.0 mg/kg/injection, schedule: Q04DX003 (ip), vehicle: saline",114 % of control
same,T/C,"endpoint: median survival time, dose: 800.0 mg/kg/injection, schedule: Q01DX009 (oral), vehicle: saline",177 % of control
same,T/C,"endpoint: median survival time, dose: 1000.0 mg/kg/injection, schedule: Q01DX001 (oral), vehicle: saline",107 % of control
same,T/C,"endpoint: median survival time, dose: 1200.0 mg/kg/injection, schedule: Q04DX003 (ip), vehicle: saline",113 % of control
same,T/C,"endpoint: median survival time, dose: 1600.0 mg/kg/injection, schedule: Q01DX009 (oral), vehicle: saline",212 % of control
same,T/C,"endpoint: median survival time, dose: 2000.0 mg/kg/injection, schedule: Q01DX001 (oral), vehicle: saline",115 % of control
CCO,T/C,"endpoint: mean survival time, dose: 50.0 mg/kg/injection, schedule: Q03HX024 (ip), vehicle: saline",100 % of control
same,T/C,"endpoint: mean survival time, dose: 100.0 mg/kg/injection, schedule: Q03HX024 (ip), vehicle: saline",102 % of control
same,T/C,"endpoint: mean survival time, dose: 125.0 mg/kg/injection, schedule: Q01DX009 (ip), vehicle: saline",103 % of control
same,T/C,"endpoint: mean survival time, dose: 200.0 mg/kg/injection, schedule: Q03HX024 (ip), vehicle: saline",97 % of control
same,T/C,"endpoint: mean survival time, dose: 250.0 mg/kg/injection, schedule: Q01DX009 (ip), vehicle: saline",100 % of control
same,T/C,"endpoint: mean survival time, dose: 400.0 mg/kg/injection, schedule: Q03HX024 (ip), vehicle: saline",102 % of control
same,T/C,"endpoint: mean survival time, dose: 500.0 mg/kg/injection, schedule: Q01DX001 (ip), vehicle: saline",109 % of control
same,T/C,"endpoint: mean survival time, dose: 500.0 mg/kg/injection, schedule: Q01DX009 (ip), vehicle: saline",105 % of control
same,T/C,"endpoint: mean survival time, dose: 1000.0 mg/kg/injection, schedule: Q01DX001 (ip), vehicle: saline",108 % of control
same,T/C,"endpoint: mean survival time, dose: 1000.0 mg/kg/injection, schedule: Q01DX009 (ip), vehicle: saline",103 % of control
same,T/C,"endpoint: mean survival time, dose: 2000.0 mg/kg/injection, schedule: Q01DX001 (ip), vehicle: saline",103 % of control
same,T/C,"endpoint: mean survival time, dose: 4000.0 mg/kg/injection, schedule: Q01DX001 (ip), vehicle: saline",111 % of control
O=c1c2ccccc2sc2cccc(Sc3ccccc3)c12,T/C,[1],95 % of control
same,T/C,[2],96 % of control
same,T/C,[3],91 % of control
CCOC(=O)Nc1cc([N+](C)(C)C)ccc1OCCOc1ccc([N+](C)(C)C)cc1,T/C,"endpoint: mean survival time, dose: 0.15 mg/kg/injection, schedule: Q04DX003 (ip), vehicle: Klucel (hydroxypropylcellulose) (HPC)",100 % of control
same,T/C,"endpoint: mean survival time, dose: 0.3 mg/kg/injection, schedule: Q04DX003 (ip), vehicle: Klucel (hydroxypropylcellulose) (HPC)",90 % of control
same,T/C,"endpoint: mean survival time, dose: 0.6 mg/kg/injection, schedule: Q04DX003 (ip), vehicle: Klucel (hydroxypropylcellulose) (HPC)",100 % of control
CC1OC(Sc2ncnc3nc[nH]c23)C(O)C(O)C1O (stereo not drawn),T/C,"endpoint: median survival time, dose: 12.5 mg/kg/injection, schedule: Q01DX005 (ip), vehicle: saline with Tween-80",105 % of control
same,T/C,"endpoint: median survival time, dose: 25.0 mg/kg/injection, schedule: Q01DX005 (ip), vehicle: saline with Tween-80",107 % of control
same,T/C,"endpoint: median survival time, dose: 50.0 mg/kg/injection, schedule: Q01DX005 (ip), vehicle: saline with Tween-80",103 % of control and 109 % of control
same,T/C,"endpoint: median survival time, dose: 100.0 mg/kg/injection, schedule: Q01DX005 (ip), vehicle: saline with Tween-80",122 % of control
same,T/C,"endpoint: median survival time, dose: 200.0 mg/kg/injection, schedule: Q01DX005 (ip), vehicle: saline with Tween-80",150 % of control and 151 % of control
same,T/C,"endpoint: median survival time, dose: 400.0 mg/kg/injection, schedule: Q01DX005 (ip), vehicle: saline with Tween-80",170 % of control
CC1=CC(O)(C2(O)C=C(C)CC(C)(C)C2)CC(C)(C)C1 (stereo not drawn),T/C,"endpoint: mean survival time, dose: 100.0 mg/kg/injection, schedule: Q01DX009 (ip), vehicle: other",102 % of control
same,T/C,"endpoint: mean survival time, dose: 100.0 mg/kg/injection, schedule: Q04DX003 (ip), vehicle: other",102 % of control
same,T/C,"endpoint: mean survival time, dose: 200.0 mg/kg/injection, schedule: Q01DX009 (ip), vehicle: other",90 % of control
same,T/C,"endpoint: mean survival time, dose: 200.0 mg/kg/injection, schedule: Q04DX003 (ip), vehicle: other",96 % of control
same,T/C,"endpoint: mean survival time, dose: 400.0 mg/kg/injection, schedule: Q01DX009 (ip), vehicle: other",88 % of control
same,T/C,"endpoint: mean survival time, dose: 400.0 mg/kg/injection, schedule: Q04DX003 (ip), vehicle: other",94 % of control
O=C(O)/C=N/NS(=O)(=O)c1ccccc1,T/C,"endpoint: mean survival time, dose: 12.5 mg/kg/injection, schedule: Q01DX009 (ip), vehicle: water",99 % of control
same,T/C,"endpoint: mean survival time, dose: 25.0 mg/kg/injection, schedule: Q01DX009 (ip), vehicle: water",103 % of control
same,T/C,"endpoint: mean survival time, dose: 50.0 mg/kg/injection, schedule: Q01DX009 (ip), vehicle: water",113 % of control
same,T/C,"endpoint: mean survival time, dose: 100.0 mg/kg/injection, schedule: Q01DX009 (ip), vehicle: water",114 % of control
Nc1ncnc2c1c(-c1nnc3c(n1)-c1ccccc1C3=O)cn2C1OC(CO)C(O)C1O (stereo not drawn),T/C,"endpoint: mean survival time, dose: 100.0 mg/kg/injection, schedule: Q01DX005 (ip), vehicle: saline",100 % of control
same,T/C,"endpoint: mean survival time, dose: 200.0 mg/kg/injection, schedule: Q01DX005 (ip), vehicle: saline",100 % of control
CN(C)C(=S)Oc1ccc(S(=O)(=O)F)cc1,T/C,"endpoint: mean survival time, dose: 100.0 mg/kg/injection, schedule: Q04DX002 (ip), vehicle: saline with Tween-80",98 % of control
same,T/C,"endpoint: mean survival time, dose: 200.0 mg/kg/injection, schedule: Q04DX002 (ip), vehicle: saline with Tween-80",91 % of control
same,T/C,"endpoint: mean survival time, dose: 400.0 mg/kg/injection, schedule: Q04DX002 (ip), vehicle: saline with Tween-80",109 % of control
[Cl][Pt+2][Cl].[NH-]C1CCCC1.[NH2-],T/C,"endpoint: mean survival time, dose: 0.39 mg/kg/injection, schedule: Q04DX003 (ip), vehicle: water",106 % of control
same,T/C,"endpoint: mean survival time, dose: 0.78 mg/kg/injection, schedule: Q04DX003 (ip), vehicle: water",122 % of control
same,T/C,"endpoint: mean survival time, dose: 3.12 mg/kg/injection, schedule: Q04DX003 (ip), vehicle: saline with Tween-80",182 % of control
same,T/C,"endpoint: mean survival time, dose: 3.13 mg/kg/injection, schedule: Q04DX003 (ip), vehicle: water",156 % of control
c1ccc2c(c1)C1c3ccccc3C2c2ccccc21,T/C,[1],95 % of control
same,T/C,[2],100 % of control
same,T/C,[3],94 % of control
Cc1ccc(S(=O)(=O)NC(=O)O/N=C/c2ccccn2)cc1,T/C,"endpoint: mean survival time, dose: 100.0 mg/kg/injection, schedule: Q01DX009 (ip), vehicle: saline with Tween-80",100 % of control
same,T/C,"endpoint: mean survival time, dose: 200.0 mg/kg/injection, schedule: Q01DX009 (ip), vehicle: saline with Tween-80",91 % of control
same,T/C,"endpoint: mean survival time, dose: 400.0 mg/kg/injection, schedule: Q01DX009 (ip), vehicle: saline with Tween-80",100 % of control
Nc1ccc(C(=O)CC(O)(C(F)(F)F)C(F)(F)F)cc1,T/C,[1],113 % of control
same,T/C,[2],111 % of control
same,T/C,[3],113 % of control
Nc1nc(N)c2[nH]c(-c3ccccc3[N+](=O)[O-])nc2n1,T/C,"endpoint: mean survival time, dose: 12.5 mg/kg/injection, schedule: Q01DX005 (ip), vehicle: water",96 % of control
same,T/C,"endpoint: mean survival time, dose: 25.0 mg/kg/injection, schedule: Q01DX005 (ip), vehicle: water",89 % of control
same,T/C,"endpoint: mean survival time, dose: 50.0 mg/kg/injection, schedule: Q01DX005 (ip), vehicle: water",87 % of control
same,T/C,"endpoint: mean survival time, dose: 100.0 mg/kg/injection, schedule: Q01DX005 (ip), vehicle: water",96 % of control
same,T/C,"endpoint: mean survival time, dose: 200.0 mg/kg/injection, schedule: Q01DX005 (ip), vehicle: water",96 % of control
Cc1ccc(C2(C#N)CCCC2)cc1,T/C,"endpoint: mean survival time, dose: 100.0 mg/kg/injection, schedule: Q01DX009 (ip), vehicle: saline sonified",97 % of control
same,T/C,[1],97 % of control
same,T/C,"endpoint: mean survival time, dose: 200.0 mg/kg/injection, schedule: Q01DX009 (ip), vehicle: saline sonified",97 % of control
same,T/C,[2],97 % of control
same,T/C,"endpoint: mean survival time, dose: 400.0 mg/kg/injection, schedule: Q01DX009 (ip), vehicle: saline sonified",88 % of control
same,T/C,[3],97 % of control
